Measured values from ChEMBL document CHEMBL1201862, “PubChem BioAssay data set” (2004).
Structures can show the parent of a compound that is named as a salt.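 In this assay, cells in 96-well plates receive the compound at five concentrations for 48 hours. Endpoints are linearly interpolated between the surrounding concentrations. At the GI50, growth is halved.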 Active and inactive are the calls of the source. No stated cut-off is given here; in the data, active = GI50 up to about 1.1 µM and inactive = higher.

How the values were obtained:
Experiment in all cases: NCI tumour cell line growth inhibition, 48 h
[1] = system: RPMI-8226
[2] = system: Hs-578T
[3] = system: NCI-H522
[4] = system: HCT-116
[5] = system: HOP-18
[6] = system: HCC 2998
[7] = system: KM12
[8] = system: SF-539
[9] = system: MDA-N
[10] = system: OVCAR-5
[11] = system: HL-60
[12] = system: CCRF-CEM
[13] = system: HOP-92
[14] = system: A549
[15] = system: SF-295
[16] = system: BT-549
[17] = system: HT-29
[18] = system: IGROV-1
[19] = system: 786-0
[20] = system: M14

Measured: GI50

O=c1[nH]c(=O)n([C@H]2CCCO2)cc1F
inactive: [1] 385 µM | [2] 3230 µM | [3] 769 µM | [4] 406 µM | [5] 692 µM | [6] 89.7 µM | [7] 813 µM | [8] 262 µM | [9] 1200 µM | [10] 953 µM | [11] 644 µM | [12] 982 µM | [13] > 3120 µM | [14] 446 µM | [15] 918 µM | [16] 4000 µM | [17] 649 µM | [18] 975 µM | [19] 984 µM | [20] 740 µM

CNNCc1ccc(C(=O)NC(C)C)cc1 [PROCARBAZINE HYDROCHLORIDE]
inactive: [1] 465 µM | [2] > 500 µM | [3] > 500 µM | [4] > 500 µM | [5] 138 µM | [6] > 398 µM | [7] > 500 µM | [8] > 500 µM | [9] > 500 µM | [10] > 439 µM | [11] > 478 µM | [12] 461 µM | [13] 369 µM | [14] 335 µM | [15] > 500 µM | [16] > 500 µM | [17] > 474 µM | [18] > 404 µM | [19] 254 µM | [20] > 500 µM
